Source: ChEMBL document CHEMBL1201862, “PubChem BioAssay data set” (2004)
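Test compounds were applied to cells in 96-well plates for 48 hours at 5 doses. At the GI50, growth is halved.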 The source made the active and inactive calls. No stated cut-off is given here; in the data, active = GI50 up to about 1.1 µM and inactive = higher.

Tests used:
Assay in all cases: growth of human tumour cells (NCI), 48 h
[1] = tested on: DMS-273
[2] = tested on: OVCAR-3
[3] = tested on: SF-539
[4] = tested on: LXFL 529
[5] = tested on: HCT-116
[6] = tested on: UACC-62
[7] = tested on: XF498
[8] = tested on: BT-549
[9] = tested on: OVCAR-5
[10] = tested on: NCI-H522
[11] = tested on: PC-3
[12] = tested on: NCI-H23
[13] = tested on: TK-10
[14] = tested on: EKVX
[15] = tested on: SN12C
[16] = tested on: RXF 393
[17] = tested on: UACC-257
[18] = tested on: HL-60
[19] = tested on: MDA-MB-435
[20] = tested on: DMS-114
[21] = tested on: SNB-78
[22] = tested on: MDA-MB-231
[23] = tested on: OVCAR-4
[24] = tested on: 786-0
[25] = tested on: MOLT-4
[26] = tested on: UO-31
[27] = tested on: A498
[28] = tested on: SK-MEL-28
[29] = tested on: COLO 205
[30] = tested on: CAKI-1
[31] = tested on: ACHN
[32] = tested on: KM-20L2
[33] = tested on: M19-MEL
[34] = tested on: Malme-3M
[35] = tested on: SK-MEL-2
[36] = tested on: SK-OV-3
[37] = tested on: MDA-N
[38] = tested on: HT-29
[39] = tested on: A549
[40] = tested on: NCI-H460
[41] = tested on: SNB-75
[42] = tested on: HCT-15
[43] = tested on: NCI-H226
[44] = tested on: SNB-19
[45] = tested on: SF-268
[46] = tested on: DU-145
[47] = tested on: CCRF-CEM
[48] = tested on: HOP-62
[49] = tested on: OVCAR-8
[50] = tested on: KM12
[51] = tested on: IGROV-1
[52] = tested on: DLD-1
[53] = tested on: HOP-18
[54] = tested on: SW-620
[55] = tested on: RPMI-8226
[56] = tested on: RXF 631
[57] = tested on: NCI/ADR-RES
[58] = tested on: MCF7
[59] = tested on: HOP-92
[60] = tested on: U-251
[61] = tested on: SR
[62] = tested on: LOX IMVI
[63] = tested on: K562
[64] = tested on: HCC 2998
[65] = tested on: SF-295
[66] = tested on: M14
[67] = tested on: SK-MEL-5

Measured: GI50

Cc1c(N)nc([C@H](CC(N)=O)NC[C@H](N)C(N)=O)nc1C(=O)N[C@H](C(=O)N[C@H](C)[C@@H](O)[C@H](C)C(=O)N[C@H](C(=O)NCCc1nc(-c2nc(C(=O)NCCC[S+](C)C)cs2)cs1)[C@@H](C)O)C(OC1OC(CO)C(O)C(O)C1OC1OC(CO)C(O)C(OC(N)=O)C1O)c1c[nH]cn1 (some centres not stated)
inactive: [2] 4.67 µM | [4] 16.9 µM | [8] 10.2 µM | [9] 2.35 µM | [11] 7.73 µM | [13] 10.8 µM | [14] 17.8 µM | [17] 12 µM | [18] 5.73 µM | [19] 19.6 µM | [21] 20.8 µM | [22] 15.8 µM | [23] 4.92 µM | [25] 1.28 µM | [27] 3.24 µM | [28] 18.2 µM | [29] 6.05 µM | [32] 19.9 µM | [33] 8.28 µM | [35] 13.7 µM | [36] 6.46 µM | [37] 14.8 µM | [38] 14.1 µM | [44] 3.96 µM | [45] 1.15 µM | [46] 3.66 µM | [47] 6.75 µM | [49] 3.26 µM | [50] 15.6 µM | [51] 2.29 µM | [52] 14.1 µM | [53] 4.27 µM | [54] 8.18 µM | [55] 17 µM | [58] 2.45 µM | [63] 8.45 µM | [64] 9.62 µM | [66] 1.56 µM
3.27 µM: [42]
active: [1] 120 nM | [3] 20 nM | [5] 415 nM | [6] 451 nM | [7] 776 nM | [10] 622 nM | [12] 637 nM | [15] 984 nM | [16] 236 nM | [20] 438 nM | [24] 1.05 µM | [26] 478 nM | [30] 37.9 nM | [31] 8.02 nM | [34] 356 nM | [39] 716 nM | [40] 64.4 nM | [41] 426 nM | [43] 222 nM | [48] 83.8 nM | [56] 608 nM | [57] 904 nM | [59] 84.1 nM | [60] 834 nM | [61] 109 nM | [62] 161 nM | [65] 114 nM | [67] 776 nM
